Consider nine compounds from patent publication US12415834B2, “GhR-binding peptide and composition comprising same” (priority 2021, dated 2025).

A word on the Kd: it is the free concentration of one partner at which half of the binding sites on the other are occupied at equilibrium, for simple one-to-one binding.

Starred links: 1 amine or outer side, 2 acyl side, 3 side chain; linkers in the order of their positions; H or OH if unused. Positions of bridges follow the written chain, without caps; N, C: chain ends. Non-standard residues stand in square brackets, D forms with d. Residues, ends and D or L forms follow the SMILES beside them. Groups on a side chain read outwards from the residue. *: point of attachment. X17 = NC(=O)[C@H](CCCCN*)NC(=O)CC[C@H](NC(=O)CCCc1ccc(I)cc1)C(=O)O; Trp(1-CH2CO) = O=C([C@H](Cc1cn(CC(=O)[*:3])c2ccccc12)N[*:1])[*:2]; Trp(5-OMe) = COc1ccc2[nH]cc(C[C@H](N)C(=O)O)c2c1; Butanoyl(4-(4-I-phenyl)) = O=C(CCCc1ccc(I)cc1)*; Trp(5-OH) = N[C@@H](Cc1c[nH]c2ccc(O)cc12)C(=O)O; Phe(4-COOH) = N[C@@H](Cc1ccc(C(=O)O)cc1)C(=O)O; Piperazinyl(4-CH2COOH) = O=C(O)CN1CCN(*)CC1; X7 = O=C(O)CN1CCC(N[*:1])(C(=O)[*:2])CC1; C16 diacid = O=C(O)CCCCCCCCCCCCCCC(=O)*; γGlu = O=C(O)[C@H](CCC(=O)[*:2])N[*:1]; X9 = O=C(CCCc1ccc(-c2ccccc2)cc1)*; X2 = O=C([C@@H]1CCCN1[*:2])[*:1]; 4Pal = N[C@@H](Cc1ccncc1)C(=O)O; NMeK = CN[C@@H](CCCCN)C(=O)O; X16 = CN(CC(=O)[*:1])[*:2]; Aib = CC(C)(N)C(=O)O; CO = O=C([*:1])[*:2]

For one experiment, the target named is T1, Recombinant human GhR-Fc protein (Homo sapiens, UniProt P10912).
T1 construct: purchased R&D Systems
T1 sequence (P10912 with tags, fused parts or gaps limits assumed): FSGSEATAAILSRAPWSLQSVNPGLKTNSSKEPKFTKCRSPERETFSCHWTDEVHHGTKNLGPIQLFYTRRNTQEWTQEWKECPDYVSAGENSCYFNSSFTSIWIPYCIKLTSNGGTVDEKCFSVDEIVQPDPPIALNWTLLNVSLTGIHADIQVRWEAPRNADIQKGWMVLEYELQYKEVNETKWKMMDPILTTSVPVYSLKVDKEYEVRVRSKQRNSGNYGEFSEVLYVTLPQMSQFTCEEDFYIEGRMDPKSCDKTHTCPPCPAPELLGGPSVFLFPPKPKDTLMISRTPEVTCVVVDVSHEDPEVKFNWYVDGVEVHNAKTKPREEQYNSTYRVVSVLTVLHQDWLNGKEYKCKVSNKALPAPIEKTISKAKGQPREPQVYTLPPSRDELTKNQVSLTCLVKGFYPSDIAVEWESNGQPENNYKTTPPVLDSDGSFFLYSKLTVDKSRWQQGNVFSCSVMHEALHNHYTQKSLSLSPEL
Kind of experiment: SPR binding assay (Biacore T200, single-cycle kinetics) of peptides against immobilized human GhR-Fc.
Conditions: not given
Put shortly: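 Human GhR-Fc amine-coupled to a CM5 chip at pH 4.0; running buffer HBS-EP with 1% DMSO. Peptides measured by single-cycle kinetics on Biacore T200, with solvent correction and baseline subtraction. KD calculated from fitted ka and kd.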
For orientation: Surface plasmon resonance follows binding to a sensor surface in real time, without labels.
For `COc1ccc2[nH]cc(C[C@@H]3NC(=O)[C@H](CC(N)=O)NC(=O)[C@H](CO)NC(=O)[C@H](C(C)C)NC(=O)[C@H](C(C)C)NC(=O)[C@H](CCCCNC(=O)CC[C@H](NC(=O)CCCc4ccc(-c5ccccc5)cc4)C(=O)O)N(C)C(=O)[C@H](Cc4ccc(C(=O)O)cc4)NC(=O)CSC[C@@H](C(N)=O)NC(=O)[C@H](C(C)C)NC(=O)C4(CCN(CC(=O)O)CC4)NC(=O)[C@H](Cc4c[nH]c5ccc(O)cc45)NC(=O)[C@H](CCCCN)NC(=O)[C@H](Cc4ccc(C(=O)O)cc4)NC3=O)c2c1` [Compound 37] ({CH2CO}-[Phe(4-COOH)][NMeK]([γGlu-X9])VVSN[Trp(5-OMe)][Phe(4-COOH)]K[Trp(5-OH)][X7]VC-NH2; thioether N-13), the Kd was determined as 5.81 nM.

The experiment is the same for the next values; noted with them: SPR, hGhR; Table 1 bicyclic peptides; KD calculated from ka and kd; read-out: KD.
As to `CC(C)[C@@H]1NC(=O)[C@H](C(C)C)NC(=O)[C@@H]2CCCCNC(=O)Cn3cc(c4ccccc43)C[C@H](NC(=O)[C@H](CC(N)=O)NC(=O)[C@H](CO)NC1=O)C(=O)N[C@@H](Cc1ccc(C(=O)O)cc1)C(=O)N[C@@H](CCCCN)C(=O)N[C@@H](Cc1c[nH]c3ccc(O)cc13)C(=O)NC(C)(C)C(=O)N[C@@H](C(C)C)C(=O)N[C@H](C(=O)NCC(=O)N1CCC[C@H]1C(=O)N[C@H](CO)C(=O)N[C@H](CO)C(=O)N[C@H](CO)C(=O)N[C@@H](CCCCNC(=O)CC[C@H](NC(=O)CC[C@H](NC(=O)CCCCCCCCCCCCCCC(=O)O)C(=O)O)C(=O)O)C(N)=O)CSCC(=O)N[C@@H](Cc1ccc(O)cc1)C(=O)N2C` [Compound 25] ({CH2CO}-Y[NMeK]VVSN[Trp(1-CH2CO)][Phe(4-COOH)]K[Trp(5-OH)][Aib]VCGP[dS][dS][dS]K([γGlu-γGlu-C16 diacid])-NH2; lactam 2-7; thioether N-13), the Kd is 2.23 nM.

Regarding `CC(C)[C@@H]1NC(=O)[C@H](C(C)C)NC(=O)[C@@H]2CCCCNC(=O)CN(C)C(=O)Cn3cc(c4ccccc43)C[C@H](NC(=O)[C@H](CC(N)=O)NC(=O)[C@H](CO)NC1=O)C(=O)N[C@@H](Cc1ccc(O)cc1)C(=O)N[C@@H](CCCCN)C(=O)N[C@@H](Cc1c[nH]c3ccc(O)cc13)C(=O)NC(C)(C)C(=O)N[C@@H](C(C)C)C(=O)N[C@H](C(=O)NCC(N)=O)CSCC(=O)N[C@@H](Cc1ccc(O)cc1)C(=O)N2C` [Compound 3] ({CH2CO}-Y[NMeK]VVSN[Trp(1-CH2CO)]YK[Trp(5-OH)][Aib]VCG-NH2; linker 2-7 via X16; thioether N-13), the equilibrium dissociation constant (Kd) was 1.71 nM.

Turning to `CC(C)[C@@H]1NC(=O)[C@H](C(C)C)NC(=O)[C@@H]2CCCCNC(=O)Cn3cc(c4ccccc43)C[C@H](NC(=O)[C@H](CC(N)=O)NC(=O)[C@H](CO)NC1=O)C(=O)N[C@@H](Cc1ccc(O)cc1)C(=O)N[C@@H](CCCCN)C(=O)N[C@@H](Cc1c[nH]c3ccc(O)cc13)C(=O)NC1(CCN(CC(=O)O)CC1)C(=O)N[C@@H](C(C)C)C(=O)N[C@H](C(=O)NCC(=O)N1CCC[C@H]1C(=O)N[C@H](CO)C(=O)N[C@H](CO)C(=O)N[C@H](CO)C(=O)N[C@@H](CCCCNC(=O)CC[C@H](NC(=O)CC[C@H](NC(=O)CCCCCCCCCCCCCCC(=O)O)C(=O)O)C(=O)O)C(N)=O)CSCC(=O)N[C@@H](Cc1ccc(O)cc1)C(=O)N2C` [Compound 30] ({CH2CO}-Y[NMeK]VVSN[Trp(1-CH2CO)]YK[Trp(5-OH)][X7]VCGP[dS][dS][dS]K([γGlu-γGlu-C16 diacid])-NH2; lactam 2-7; thioether N-13), the Kd was 2.26 nM.

As to `CC(C)[C@@H]1NC(=O)[C@H](C(C)C)NC(=O)[C@@H]2CCCCNC(=O)Cn3cc(c4ccccc43)C[C@H](NC(=O)[C@H](CC(N)=O)NC(=O)[C@H](CO)NC1=O)C(=O)N[C@@H](Cc1ccc(O)cc1)C(=O)N[C@@H](CCCCN)C(=O)N[C@@H](Cc1c[nH]c3ccc(O)cc13)C(=O)NC(C)(C)C(=O)N[C@@H](C(C)C)C(=O)N[C@H](C(=O)NCC(=O)N1CCC[C@H]1C(=O)N[C@H](CO)C(=O)N[C@H](CO)C(=O)N[C@H](CO)C(=O)N[C@@H](CCCCNC(=O)CC[C@H](NC(=O)CC[C@H](NC(=O)CCCCCCCCCCCCCCC(=O)O)C(=O)O)C(=O)O)C(N)=O)CSCC(=O)N[C@@H](Cc1ccc(C(=O)O)cc1)C(=O)N2C` [Compound 20] ({CH2CO}-[Phe(4-COOH)][NMeK]VVSN[Trp(1-CH2CO)]YK[Trp(5-OH)][Aib]VCGP[dS][dS][dS]K([γGlu-γGlu-C16 diacid])-NH2; lactam 2-7; thioether N-13), the Kd was 1.25 nM. Turning to `CC(C)[C@@H]1NC(=O)[C@H](C(C)C)NC(=O)[C@@H]2CCCCNC(=O)Cn3cc(c4ccccc43)C[C@H](NC(=O)[C@H](CC(N)=O)NC(=O)[C@H](CO)NC1=O)C(=O)N[C@@H](Cc1ccc(C(=O)O)cc1)C(=O)N[C@@H](CCCCN)C(=O)N[C@@H](Cc1c[nH]c3ccc(O)cc13)C(=O)NC(C)(C)C(=O)N[C@@H](C(C)C)C(=O)N[C@H](C(=O)NCCCC[C@H](NC(=O)CC[C@H](NC(=O)CCCc1ccc(I)cc1)C(=O)O)C(N)=O)CSCC(=O)N[C@@H](Cc1ccc(C(=O)O)cc1)C(=O)N2C` [Compound 13] ({CH2CO}-[Phe(4-COOH)][NMeK]VVSN[Trp(1-CH2CO)][Phe(4-COOH)]K[Trp(5-OH)][Aib]VC-X17; lactam 2-7; thioether N-13), the Kd was 1.36 nM. As for `CC(C)[C@@H]1NC(=O)[C@H](C(C)C)NC(=O)[C@@H]2CCCCNC(=O)[C@@H]3CCCN3C(=O)Cn3cc(c4ccccc43)C[C@H](NC(=O)[C@H](CC(N)=O)NC(=O)[C@H](CO)NC1=O)C(=O)N[C@@H](Cc1ccc(O)cc1)C(=O)N[C@@H](CCCCN)C(=O)N[C@@H](Cc1c[nH]c3ccc(O)cc13)C(=O)NC(C)(C)C(=O)N[C@@H](C(C)C)C(=O)N[C@H](C(=O)NCC(N)=O)CSCC(=O)N[C@@H](Cc1ccc(O)cc1)C(=O)N2C` [Compound 4] ({CH2CO}-Y[NMeK]VVSN[Trp(1-CH2CO)]YK[Trp(5-OH)][Aib]VCG-NH2; linker 2-7 via X2; thioether N-13), the Kd was 1.07 nM.

Staying with this experiment, now noted: SPR, hGhR; Table 2 monocyclic peptides; KD calculated from ka and kd; read-out: KD.
`COc1ccc2[nH]cc(C[C@@H]3NC(=O)[C@H](CC(N)=O)NC(=O)[C@H](CO)NC(=O)[C@H](C(C)C)NC(=O)[C@H](C(C)C)NC(=O)[C@H](CCCCNC(=O)CC[C@H](NC(=O)CCCc4ccc(I)cc4)C(=O)O)N(C)C(=O)[C@H](Cc4ccc(C(=O)O)cc4)NC(=O)CSC[C@@H](C(N)=O)NC(=O)[C@H](C(C)C)NC(=O)C(C)(C)NC(=O)[C@H](Cc4c[nH]c5ccc(O)cc45)NC(=O)[C@H](CCCCNC(=O)N4CCN(CC(=O)O)CC4)NC(=O)[C@H](Cc4ccc(C(=O)O)cc4)NC3=O)c2c1` [Compound 35] ({CH2CO}-[Phe(4-COOH)][NMeK]([γGlu-Butanoyl(4-(4-I-phenyl))])VVSN[Trp(5-OMe)][Phe(4-COOH)]K([CO-Piperazinyl(4-CH2COOH)])[Trp(5-OH)][Aib]VC-NH2; thioether N-13): the equilibrium dissociation constant (Kd) is 5.47 nM.

Regarding `COc1ccc2[nH]cc(C[C@@H]3NC(=O)[C@H](CC(N)=O)NC(=O)[C@H](CO)NC(=O)[C@H](C(C)C)NC(=O)[C@H](C(C)C)NC(=O)[C@H](CCCCNC(=O)CC[C@H](NC(=O)CCCc4ccc(I)cc4)C(=O)O)N(C)C(=O)[C@H](Cc4ccncc4)NC(=O)CSC[C@@H](C(N)=O)NC(=O)[C@H](C(C)C)NC(=O)C(C)(C)NC(=O)[C@H](Cc4c[nH]c5ccc(O)cc45)NC(=O)[C@H](CCCCN)NC(=O)[C@H](Cc4ccc(C(=O)O)cc4)NC3=O)c2c1` [Compound 34] ({CH2CO}-[4Pal][NMeK]([γGlu-Butanoyl(4-(4-I-phenyl))])VVSN[Trp(5-OMe)][Phe(4-COOH)]K[Trp(5-OH)][Aib]VC-NH2; thioether N-13), the Kd is 2.77 nM.
